Where “and” joins values, the source holds several entries; their conditions need not be identical. Equal entries are not always repeated. Where two headings read alike, the source gives them in different places. Marks after values point to notes of the source that are not given here.
Key:
[1] = system: HCV genotype 1a replicon; assay: Biological Example 3: antiviral combination studies with Compound 4 (MacSynergy II); conditions: in combination with Compound 4
[2] = system: GT1b and GT1a mutant replicons; assay: Biological Example 8: summary of cross resistance of mutant replicons; type: cell-based, HCV
Method: (§1) GT1b and GT1a replicons carrying Renilla Luciferase reporter were used to generate the mutant replicons. The mutations were introduced into the replicon construct by site-directed mutagenesis and confirmed by sequencing. Mutant replicon RNAs were generated from DNA by in vitro transcription and transfected into Huh-7 Lunet or C1 cells
(§2) Compounds were serially diluted 1:3 in 100% DMSO (Sigma). These serial dilutions were added to the cells at a 1:200 dilution to achieve a final concentration of 0.5% DMSO in a total volume of 200 μL. […] EC50 values were calculated using Prism.
(§3) For comparison, a fold change of 0-3 is considered “sensitive”, a fold change of 3-10 is considered “low”, a fold change of 10-50 is considered “medium” and a fold change of greater than […] is considered “high”.

[3] = system: NS3 GT1b mutant replicons; type: cell-based, HCV
Method: as §1, §2, §3

[4] = system: NS3 GT1a mutant replicons; type: cell-based, HCV
Method: as §1, §2, §3

[5] = system: Huh-7 cells carrying a HCV genotype 1a replicon; assay: Biological Example 3: cytotoxicity (calcein AM), CC50; type: cell-based; conditions: HCV genotype 1a replicon cells; IFN-α in Units (U) per milliliter (mL)
Method: The HCV replicon assay was a multiplex assay which can assess both cytotoxicity and anti-replicon activity from the same well. The CC50 assay was performed first.
The cytotoxicity effect was determined by calcein AM conversion to fluorescent product. The percent cytotoxicity was calculated by equation 1:
(§4) [formula] where XC is the fluorescence signal from the compound-treated well; MB is the average fluorescence signal from puromycin-treated wells; MD is the average fluorescence signal from DMSO-treated wells. The anti-HCV replication activity was determined by the luminescence signal generated from the reporter renilla luciferase of the HCV replicon. The percent inhibition on HCV replicon was calculated using equation 1, where XC is the luminescence signal from compound-treated well; MB is average luminescence signal from the ITMN-191-treated wells; MD is the average luminescence signal from DMSO-treated wells.
(§5) Both CC50 and EC50 values were obtained using Pipeline Pilot 5.0 software package (Accelrys, San Diego, Calif.) by nonlinear regression fitting of experimental data to equation 2: […]

[6] = system: Huh-7 cells carrying a HCV genotype 1a replicon; assay: Biological Example 3: cytotoxicity in combination studies (MacSynergy II); conditions: in combination with Compound 4
[7] = system: HCV 1b replicon system; assay: Biological Example 5: antiviral combination studies with Compound 6 (MacSynergy II); type: cell-based; conditions: in combination with Compound 6
[8] = system: HCV genotype 1a replicon; assay: Biological Example 3: HCV genotype 1a replicon assay, EC50; type: cell-based; conditions: IFN-α in Units (U) per milliliter (mL)
Method: The HCV genotype 1a replicon cell line used in this study was described previously. The cells were grown in cell culture medium containing Dulbecco's Modified Eagle Medium (DMEM) with GlutaMAX (Gibco, Carlsbad, Calif., Cat#10569-044), supplemented with 10% FBS (HyClone, Logan, Utah, Cat#SH30071.03), 100 Units/mL Penicillin, 100 μg/mL Streptomycin (Gibco, Carlsbad, Calif., Cat#15140-122), and 0.1 mM non-essential amino acids (Gibco, Carlsbad, Calif., Cat#11140-050). Replicon cells were maintained in 0.5 mg/mL Geneticin (Invitrogen, Carlsbad, Calif., Cat#10131-035) to prevent the loss of HCV replicon. The cells were passaged every 3-4 days before reaching confluency.
as §4, §5

Question: Which “Antagonism Volume” value [1] does the source give for IFN-α [reference compound] here?
Answer: 0 ± 0 nM^2%

Question: What about the Interaction [1] of the same substance?
Answer: Additivity (Additivity: ≦25 and >−25 nM^2%)

Question: What about the “Synergy Volume” value [1] of the same substance?
Answer: 12 ± 6 nM^2%

Question: What about the susceptibility of mutants ([2]; all single NS3 PI-resistant mutants) of the same substance?
Answer: full susceptibility

Question: And the susceptibility of mutants ([2]; triple class mutants that confer resistance to PI, NS5A and Compound 1)?
Answer: susceptible

Question: And the “fold change in EC50 vs wild-type GT1b” value ([3]; mutant A156D)?
Answer: 0.6 fold

Question: What about the “fold change in EC50 vs wild-type GT1b” value ([3]; mutant A156G) of the same substance?
Answer: 1.1 fold

Question: What about the “fold change in EC50 vs wild-type GT1b” value ([3]; mutant A156T) of the same substance?
Answer: 0.8 fold

Question: And the “fold change in EC50 vs wild-type GT1b” value ([3]; mutant A156V)?
Answer: 0.9 fold

Question: And the “fold change in EC50 vs wild-type GT1b” value ([3]; mutant D168A)?
Answer: 0.9 fold

Question: And the “fold change in EC50 vs wild-type GT1b” value ([3]; mutant D168E)?
Answer: 0.9 fold

Question: And the “fold change in EC50 vs wild-type GT1b” value ([3]; mutant D168E + L31V + Y448H)?
Answer: 0.7 fold

Question: What about the “fold change in EC50 vs wild-type GT1b” value ([3]; mutant D168E + Y93H + Y448H) of the same substance?
Answer: 0.4 fold

Question: What about the “fold change in EC50 vs wild-type GT1b” value ([3]; mutant D168G) of the same substance?
Answer: 0.6 fold

Question: And the “fold change in EC50 vs wild-type GT1b” value ([3]; mutant D168H)?
Answer: 0.8 fold

Question: And the “fold change in EC50 vs wild-type GT1b” value ([3]; mutant D168N)?
Answer: 1.0 fold

Question: And the “fold change in EC50 vs wild-type GT1b” value ([3]; mutant D168T)?
Answer: 0.9 fold

Question: What about the “fold change in EC50 vs wild-type GT1b” value ([3]; mutant D168V) of the same substance?
Answer: 1.5 fold

Question: And the “fold change in EC50 vs wild-type GT1b” value ([3]; mutant D168V + L31V + Y448H)?
Answer: 0.5 fold

Question: And the “fold change in EC50 vs wild-type GT1b” value ([3]; mutant D168V + Y93H + Y448H)?
Answer: 0.6 fold

Question: And the “fold change in EC50 vs wild-type GT1b” value ([3]; mutant D168Y)?
Answer: 1.3 fold

Question: What about the “fold change in EC50 vs wild-type GT1b” value ([3]; mutant L31V + D168E) of the same substance?
Answer: 1.3 fold

Question: What about the “fold change in EC50 vs wild-type GT1b” value ([3]; mutant L31V + D168V) of the same substance?
Answer: 1.2 fold

Question: And the “fold change in EC50 vs wild-type GT1b” value ([3]; mutant R155C)?
Answer: 0.7 fold

Question: What about the “fold change in EC50 vs wild-type GT1b” value ([3]; mutant R155G) of the same substance?
Answer: 1.1 fold

Question: What about the “fold change in EC50 vs wild-type GT1b” value ([3]; mutant R155K) of the same substance?
Answer: 1.5 fold

Question: And the “fold change in EC50 vs wild-type GT1b” value ([3]; mutant R155L)?
Answer: 1.1 fold

Question: What about the “fold change in EC50 vs wild-type GT1b” value ([3]; mutant R155Q) of the same substance?
Answer: 0.6 fold

Question: What about the “fold change in EC50 vs wild-type GT1b” value ([3]; mutant R155W) of the same substance?
Answer: 0.5 fold

Question: What about the “fold change in EC50 vs wild-type GT1b” value ([3]; mutant Y93H + D168E) of the same substance?
Answer: 1.1 fold

Question: What about the “fold change in EC50 vs wild-type GT1b” value ([3]; mutant Y93H + D168V) of the same substance?
Answer: 0.7 fold

Question: What about the “fold change in EC50 vs wild-type GT1a” value ([4]; mutant A156T) of the same substance?
Answer: 0.1 fold

Question: What about the “fold change in EC50 vs wild-type GT1a” value ([4]; mutant D168A) of the same substance?
Answer: 1.4 fold

Question: And the “fold change in EC50 vs wild-type GT1a” value ([4]; mutant D168E)?
Answer: 2.1 fold

Question: What about the “fold change in EC50 vs wild-type GT1a” value ([4]; mutant D168G) of the same substance?
Answer: 0.8 fold

Question: What about the “fold change in EC50 vs wild-type GT1a” value ([4]; mutant D168H) of the same substance?
Answer: 0.9 fold

Question: And the “fold change in EC50 vs wild-type GT1a” value ([4]; mutant D168N)?
Answer: 1.1 fold

Question: And the “fold change in EC50 vs wild-type GT1a” value ([4]; mutant D168V)?
Answer: 1.0 fold

Question: And the “fold change in EC50 vs wild-type GT1a” value ([4]; mutant D168Y)?
Answer: 1.2 fold

Question: And the “fold change in EC50 vs wild-type GT1a” value ([4]; mutant R155I)?
Answer: 0.6 fold

Question: And the “fold change in EC50 vs wild-type GT1a” value ([4]; mutant R155K)?
Answer: 0.7 fold

Question: And the “fold change in EC50 vs wild-type GT1a” value ([4]; mutant R155K + L31M)?
Answer: 0.2 fold

Question: And the “fold change in EC50 vs wild-type GT1a” value ([4]; mutant R155K + M28T)?
Answer: 1.1 fold

Question: And the “fold change in EC50 vs wild-type GT1a” value ([4]; mutant R155K + Q30H + Y448H)?
Answer: 1.9 fold

Question: What about the “fold change in EC50 vs wild-type GT1a” value ([4]; mutant R155K + Q30R) of the same substance?
Answer: 1.6 fold

Question: What about the “fold change in EC50 vs wild-type GT1a” value ([4]; mutant R155K + Y93H) of the same substance?
Answer: 0.3 fold

Question: And the “fold change in EC50 vs wild-type GT1a” value ([4]; mutant R155K + Y488H (second line, r26))?
Answer: 0.7 fold

Question: And the “fold change in EC50 vs wild-type GT1a” value ([4]; mutant R155M)?
Answer: 0.3 fold

Question: What about the “fold change in EC50 vs wild-type GT1a” value ([4]; mutant R155S) of the same substance?
Answer: 0.1 fold

Question: And the “fold change in EC50 vs wild-type GT1a” value ([4]; mutant R155T)?
Answer: 0.2 fold

Question: And the “fold change in EC50 vs wild-type GT1a” value ([4]; mutant R155W)?
Answer: 0.6 fold

Question: And the “fold change in EC50 vs wild-type GT1a” value ([4]; mutant R155k + Q30H)?
Answer: 1.4 fold

Question: And the CC50 [5]?
Answer: >50^b U/mL

Question: What about the “Antagonism Volume (cytotoxicity)” value [6] of the same substance?
Answer: −7 ± 13 nM^2%

Question: And the “Interaction (cytotoxicity)” value [6]?
Answer: Additivity (Additivity: ≦25 and >−25 nM^2%)

Question: What about the “Synergy Volume (cytotoxicity)” value [6] of the same substance?
Answer: 8 ± 12 nM^2%

Question: And the “Antagonism Volume” value [7]?
Answer: 0.0 ± 0.0 nM^2

Question: What about the Interaction [7] of the same substance?
Answer: Minor Synergy

Question: And the “Synergy Volume” value [7]?
Answer: 32 nM^2 and 32 ± 1.4 nM^2

Question: And the EC50 [8]?
Answer: 1.4 ± 0.3^b U/mL

Source: patent publication US9452154B2, “Methods for treating HCV” (Gilead Sciences, Inc., priority 2010, dated 2016)
